Patent publication US4560662A, “Streptomyces antibioticus ATCC 31771 and process for obtaining same” (priority 1981, dated 1985)
≈ marks a conversion by molar mass, not a printed value. Where two headings read alike, the source gives them in different places.

Tests used:
[1] = test system: Staphylococcus aureus ATCC 6538 P; test: Bacteriostatic power in solid medium (MIC), aerobic Gram positive; format: cell-based; settings: Staphylococcus aureus
[2] = test system: Staphylococcus aureus LRP 14; test: as above; format: cell-based; settings: Staphylococcus aureus
[3] = test system: Streptococcus faecalis LRP 7; test: as above; format: cell-based; settings: Enterococcus faecalis
[4] = test system: Streptococcus faecalis sub. zymogenes ATCC 12958; test: as above; format: cell-based; settings: Enterococcus faecalis
[5] = test system: Streptococcus pneumonieae ATCC 6303; test: as above; format: cell-based; settings: Streptococcus
[6] = test system: Streptococcus pneumonieae LRP 52; test: as above; format: cell-based; settings: Streptococcus
[7] = test system: Streptococcus pneumonieae LRP 53; test: as above; format: cell-based; settings: Streptococcus
[8] = test system: Streptococcus pyogenes ATCC 8668; test: as above; format: cell-based; settings: Streptococcus pyogenes
[9] = test system: Streptococcus pyogenes LRP 197; test: as above; format: cell-based; settings: Streptococcus pyogenes
[10] = test system: Corynebacterium diphteriae LRP 24; test: as above; format: cell-based; settings: Corynebacterium
[11] = test system: Micrococcus luteus ATCC 9341; test: as above; format: cell-based; settings: Micrococcus luteus
[12] = test system: Micrococcus luteus ATCC 15957; test: as above; format: cell-based; settings: Micrococcus luteus, ATCC15957, LRP 193, Erythromicina resistant, read-out: minimum inhibiting concentration
Description: (§1) Turning now to an examination of the novel macrolide antibiotics produced according to the present invention, they are all characterized by a bacteriostatic spectrum like that of erythromycin and by the stability in acidic environment, whereby their direct administration by oral route is possible, without having recourse to esters and/or salts, showing the afore mentioned disadvantages and problems. The above is confirmed by the following Table 1, wherein the MIC values are reported, indicating the bacteriostatic power, and by the Table 2, giving the stability values in acidic environment. Without having to be construed in a limiting sense, it seems plausible that the greater stability of the macrolide. antibiotics of the present invention can be attributed to the presence in the molecule of the antibiotic of the neutral sugar oleandrose (J. Antib. (1976) XXIX (7), 728).
(§2) Bacteriostatic power in solid medium of Erythromycin A, Erythromycin B,
(§3) aerobic and anaerobic bacteria, Gram positive and Gram negative minimum
(§4) inhibiting concentrations expressed in mcg/ml.

[13] = test system: Staphylococcus aureus ATCC 14154; test: as above; format: cell-based; settings: Staphylococcus aureus, ATCC14154, LRP 78, Erythromicina resistant, read-out: minimum inhibiting concentration
Description: as §1, §2, §3, §4

[14] = test system: Bacillus subtilis LRP 25; test: as above; format: cell-based; settings: Bacillus subtilis
[15] = test system: Haemophilus influenzae ATCC 19418; test: Bacteriostatic power in solid medium (MIC), aerobic Gram negative; format: cell-based; settings: Haemophilus influenzae, ATCC19418, LRP 213, read-out: minimum inhibiting concentration
Description: as §1, §2, §3, §4

[16] = test system: Pseudomonas aeruginosa LRP 9; test: as above; format: cell-based; settings: Pseudomonas aeruginosa, LRP9, read-out: minimum inhibiting concentration
Description: as §1, §2, §3, §4

[17] = test system: Shigella sonnei LRP 5; test: as above; format: cell-based; settings: Shigella sonnei, LRP5, read-out: minimum inhibiting concentration
Description: as §1, §2, §3, §4

[18] = test system: Neisseria Gonorrhoeae ATCC 19424; test: as above; format: cell-based; settings: Neisseria gonorrhoeae
[19] = test system: Escherichia coli LRP 50; test: as above; format: cell-based; settings: Escherichia coli, LRP50; solid medium; LRP 50; read-out: minimum inhibiting concentration
[20] = test system: Klebsiella pneumoniae LRP 54; test: as above; format: cell-based; settings: Klebsiella pneumoniae
[21] = test system: Proteus vulgaris ATCC 6380; test: as above; format: cell-based; settings: Proteus vulgaris
[22] = test system: Salmonella typhi LRP 8; test: as above; format: cell-based; settings: Salmonella enterica, TYPHI, read-out: minimum inhibiting concentration
[23] = test system: Acholeplasma laidlawii ATCC 23206; test: as above; format: cell-based; settings: Acholeplasma laidlawii
[24] = test system: Mycoplasma hominis I ATCC 14097; test: as above; format: cell-based; settings: Metamycoplasma hominis
[25] = test system: Clostridium perfrigens ATCC 3624; test: Bacteriostatic power in solid medium (MIC), anaerobic; format: cell-based; settings: Clostridium, ATCC3624, LRP 206, read-out: minimum inhibiting concentration
[26] = test system: Bacteroides fragilis ATCC 23745; test: as above; format: cell-based; settings: Bacteroides fragilis
[27] = test system: Fusobacterium necrophorum ATCC 27852; test: as above; format: cell-based; settings: Fusobacterium necrophorum, ATCC27852, read-out: minimum inhibiting concentration
[28] = physchem; format: physicochemical; settings: acidic environment
Description: t 1/2 represents the half life time of the antibiotics as determined by
high pressure liquid phase chromatography (HPLC).

In the case of `CC[C@H]1OC(=O)[C@H](C)[C@@H](O[C@H]2C[C@@](C)(OC)[C@@H](O)[C@H](C)O2)[C@H](C)[C@@H](O[C@@H]2O[C@H](C)C[C@H](N(C)C)[C@H]2O)[C@](C)(O)C[C@@H](C)C(=O)[C@H](C)[C@@H](O)[C@]1(C)O` [Erythromycin A, reference compound], the MIC ([1]; ATCC6538, read-out: minimum inhibiting concentration) is reported as 0.049 µg/mL (≈ 0.0668 µM), the MIC ([2]; LRP14, read-out: minimum inhibiting concentration) is reported as 0.049 µg/mL (≈ 0.0668 µM) and the MIC ([3]; LRP7, read-out: minimum inhibiting concentration) is reported as 0.097 µg/mL (≈ 0.132 µM). For the same molecule, the MIC ([4]; ATCC12958, read-out: minimum inhibiting concentration) was 0.195 µg/mL (≈ 0.266 µM), the MIC ([5]; ATCC6303, read-out: minimum inhibiting concentration) was 0.012 µg/mL (≈ 0.0164 µM) and the MIC ([6]; LRP52, read-out: minimum inhibiting concentration) was 0.012 µg/mL (≈ 0.0164 µM). The MIC ([7]; LRP53, read-out: minimum inhibiting concentration) was 0.012 µg/mL (≈ 0.0164 µM), the MIC ([8]; ATCC8668, read-out: minimum inhibiting concentration) was 0.012 µg/mL (≈ 0.0164 µM) and the MIC ([9]; LRP197, read-out: minimum inhibiting concentration) was 0.012 µg/mL (≈ 0.0164 µM). It also gave an MIC ([10]; LRP24, read-out: minimum inhibiting concentration) of 0.006 µg/mL (≈ 0.00818 µM), an MIC ([11]; ATCC9341, read-out: minimum inhibiting concentration) of 0.006 µg/mL (≈ 0.00818 µM) and an MIC [12] greater than 25 µg/mL. The MIC [13] was greater than 25 µg/mL, the MIC ([14]; LRP25, read-out: minimum inhibiting concentration) was 0.049 µg/mL (≈ 0.0668 µM) and the MIC [15] was 3.12 µg/mL (≈ 4.25 µM). It also gave an MIC [16] greater than 25 µg/mL, an MIC [17] of 12.5 µg/mL (≈ 17 µM) and an MIC ([18]; ATCC19424, read-out: minimum inhibiting concentration) of 0.049 µg/mL (≈ 0.0668 µM). For the same molecule, the MIC [19] was 6.25 µg/mL (≈ 8.52 µM), the MIC ([20]; LRP54, read-out: minimum inhibiting concentration) was 25 µg/mL (≈ 34.1 µM) and the MIC ([21]; ATCC6380, read-out: minimum inhibiting concentration) was greater than 25 µg/mL. The MIC [22] was 12.5 µg/mL (≈ 17 µM), the MIC ([23]; ATCC23206, read-out: minimum inhibiting concentration) was 0.097 µg/mL (≈ 0.132 µM) and the MIC ([24]; ATCC14097, read-out: minimum inhibiting concentration) was greater than 25 µg/mL. It also gave an MIC [25] of 1.56 µg/mL (≈ 2.13 µM), an MIC ([26]; ATCC23745, read-out: minimum inhibiting concentration) of 0.195 µg/mL (≈ 0.266 µM) and an MIC [27] of 1.56 µg/mL (≈ 2.13 µM). For the same molecule, the half-life ([28]; pH 2) was 2 min and the half-life ([28]; pH 3) was 6 min.
With `CC[C@H]1OC(=O)[C@H](C)[C@@H](O[C@H]2C[C@@](C)(OC)[C@@H](O)[C@H](C)O2)[C@H](C)[C@@H](O[C@@H]2O[C@H](C)C[C@H](N(C)C)[C@H]2O)[C@](C)(O)C[C@@H](C)C(=O)[C@H](C)[C@@H](O)[C@H]1C` [Erythromycin B, reference compound] the MIC ([1]; ATCC6538, solid medium, LRP 39, read-out: minimum inhibiting concentration) was 0.097 µg/mL (≈ 0.135 µM), the MIC ([2]; LRP14, solid medium, LRP 14, Penycilline resistant, read-out: minimum inhibiting concentration) was 0.195 µg/mL (≈ 0.272 µM) and the MIC ([3]; LRP7, solid medium, LRP 7, read-out: minimum inhibiting concentration) was 0.195 µg/mL (≈ 0.272 µM). For the same molecule, the MIC ([4]; ATCC12958, solid medium, LRP 61, read-out: minimum inhibiting concentration) was 0.195 µg/mL (≈ 0.272 µM), the MIC ([5]; ATCC6303, solid medium, LRP 35, read-out: minimum inhibiting concentration) was 0.024 µg/mL (≈ 0.0334 µM) and the MIC ([6]; LRP52, solid medium, LRP 52, read-out: minimum inhibiting concentration) was 0.024 µg/mL (≈ 0.0334 µM). For the same molecule, the MIC ([7]; LRP53, solid medium, LRP 53, read-out: minimum inhibiting concentration) was 0.024 µg/mL (≈ 0.0334 µM), the MIC ([8]; ATCC8668, solid medium, LRP 34, read-out: minimum inhibiting concentration) was 0.024 µg/mL (≈ 0.0334 µM) and the MIC ([9]; LRP197, solid medium, LRP 197, read-out: minimum inhibiting concentration) was 0.024 µg/mL (≈ 0.0334 µM). The MIC ([10]; LRP24, solid medium, LRP 24, read-out: minimum inhibiting concentration) was 0.012 µg/mL (≈ 0.0167 µM), the MIC ([11]; ATCC9341, solid medium, LRP 6, read-out: minimum inhibiting concentration) was 0.006 µg/mL (≈ 0.00836 µM) and the MIC [12] was greater than 25 µg/mL. For the same molecule, the MIC [13] was greater than 25 µg/mL, the MIC ([14]; LRP25, solid medium, LRP 25, read-out: minimum inhibiting concentration) was 0.049 µg/mL (≈ 0.0683 µM) and the MIC [15] was 6.25 µg/mL (≈ 8.71 µM). The MIC [16] was greater than 25 µg/mL, the MIC [17] was greater than 25 µg/mL and the MIC ([18]; ATCC19424, solid medium, LRP 214, read-out: minimum inhibiting concentration) was 0.097 µg/mL (≈ 0.135 µM). It also gave an MIC [19] of 25 µg/mL (≈ 34.8 µM), an MIC ([20]; LRP54, solid medium, LRP 54, read-out: minimum inhibiting concentration) of 25 µg/mL (≈ 34.8 µM) and an MIC ([21]; ATCC6380, solid medium, LRP 13, read-out: minimum inhibiting concentration) greater than 25 µg/mL. For the same molecule, the MIC [22] was 25 µg/mL (≈ 34.8 µM), the MIC ([23]; ATCC23206, solid medium, LRP 204, read-out: minimum inhibiting concentration) was 0.097 µg/mL (≈ 0.135 µM) and the MIC ([24]; ATCC14097, solid medium, LRP 211, read-out: minimum inhibiting concentration) was greater than 25 µg/mL. It also gave an MIC [25] of 1.56 µg/mL (≈ 2.17 µM), an MIC ([26]; ATCC23745, solid medium, LRP 205, anaerobic, read-out: minimum inhibiting concentration) of 0.195 µg/mL (≈ 0.272 µM) and an MIC [27] of 6.25 µg/mL (≈ 8.71 µM).
